Measured values from patent publication US8901118B2, “Compounds and methods for kinase modulation, and indications therefor” (Plexxikon Inc., priority 2010, dated 2014).

How the values were obtained:
[1] = molecular target: c-Kit kinase (Homo sapiens, UniProt P10721); assay: c-Kit kinase biochemical activity assay (AlphaScreen, biotin-(E4Y)10 phosphorylation); conditions: 100 μM ATP; read-out: Biochemical Inhibition IC50 Kit
How it was run: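 AlphaScreen read-out (streptavidin donor, anti-phosphotyrosine PY20 acceptor beads, EDTA stop) of c-Kit activity. Reaction: 0.75 ng kinase, 100 µM ATP, 30 nM biotin-(E4Y)10, 25 mM HEPES pH 7.5, 2 mM MgCl2, 2 mM MnCl2, 5% DMSO, 1 h room temperature. IC50 derived over an 8-point, two-fold dilution series.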

[2] = molecular target: TrkA kinase (Homo sapiens, UniProt P04629); assay: TrkA kinase biochemical activity assay (AlphaScreen); conditions: 100 μM ATP; read-out: Biochemical Inhibition IC50 TrkA
How it was run: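 IC50 values come from AlphaScreen PY20/streptavidin bead signal versus compound concentration. Kinase reaction: 1 ng/well TrkA, 100 μM ATP, 30 nM biotin-(E4Y)10 substrate, Mn2+-containing Hepes buffer pH 7.5, 5% DMSO, 40 min, room temperature; TrkC assayed by the same approach.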

[3] = molecular target: CYP2C19 (Homo sapiens, UniProt P33261); assay: CYP2C19 inhibition (fluorescent substrate CEC); format: in vitro ADME; conditions: read-out: Cyp IC50 2C19
How it was run: (§1)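 10-pt 1:1 dilution series (from 100 mM DMSO stock) in NADPH regen cofactor mix, 5% MeCN; 10 min preincubation at 37 °C. Enzyme reaction 37 °C: 1A2 15 min, 2C9 45 min, 2C19/2D6 30 min. Fluorescence readout; IC50 fit.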

[4] = molecular target: CYP2D6 (Homo sapiens, UniProt P10635); assay: CYP2D6 inhibition (fluorescent substrate AMMC); format: in vitro ADME; conditions: read-out: Cyp IC50 2D6
How it was run: as §1

[5] = molecular target: CYP3A4(BQ) (Homo sapiens, UniProt P08684); assay: CYP3A4(BQ) inhibition; format: in vitro ADME; conditions: CYP3A4, substrate BQ; read-out: Cyp IC50 3A4(BQ)
How it was run: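 After 30 min incubation at 37° C, plates were read on a Tecan Safire 2 at 409 ex/460 em, and IC50 values came from signal plotted against compound concentration. Enzyme and substrate were sourced from BD Biosciences. The cofactor mix held 1.3% NADPH Regeneration system Solution A, 1.04% Solution B, 5% acetonitrile and 0.05% DMSO.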

Sequence of c-Kit kinase (P10721 26-976): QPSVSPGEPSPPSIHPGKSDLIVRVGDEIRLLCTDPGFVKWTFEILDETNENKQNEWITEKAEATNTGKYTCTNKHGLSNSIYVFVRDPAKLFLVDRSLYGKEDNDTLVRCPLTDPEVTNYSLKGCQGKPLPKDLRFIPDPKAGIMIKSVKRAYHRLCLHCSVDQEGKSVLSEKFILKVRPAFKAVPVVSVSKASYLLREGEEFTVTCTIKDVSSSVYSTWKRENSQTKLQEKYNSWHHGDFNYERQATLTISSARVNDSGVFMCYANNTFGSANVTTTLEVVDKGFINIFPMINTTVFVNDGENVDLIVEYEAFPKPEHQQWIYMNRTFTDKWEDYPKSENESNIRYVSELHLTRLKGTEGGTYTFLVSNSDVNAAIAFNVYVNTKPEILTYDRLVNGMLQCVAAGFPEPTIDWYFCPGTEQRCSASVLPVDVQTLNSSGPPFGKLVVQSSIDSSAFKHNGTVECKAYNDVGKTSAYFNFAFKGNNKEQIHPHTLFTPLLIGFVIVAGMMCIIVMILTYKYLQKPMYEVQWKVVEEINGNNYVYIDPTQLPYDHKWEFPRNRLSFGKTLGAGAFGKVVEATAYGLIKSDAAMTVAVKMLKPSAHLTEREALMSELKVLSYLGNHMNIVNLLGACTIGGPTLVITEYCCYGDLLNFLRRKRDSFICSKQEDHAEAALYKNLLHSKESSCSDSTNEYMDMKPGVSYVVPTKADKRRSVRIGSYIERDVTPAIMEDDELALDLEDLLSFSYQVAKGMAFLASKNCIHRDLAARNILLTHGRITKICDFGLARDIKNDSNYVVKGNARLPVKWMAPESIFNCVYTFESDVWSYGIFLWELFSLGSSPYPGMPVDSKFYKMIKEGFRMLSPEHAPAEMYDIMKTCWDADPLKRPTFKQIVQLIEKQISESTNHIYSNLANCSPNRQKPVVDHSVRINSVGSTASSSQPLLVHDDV
Sequence of CYP2C19 (P33261 whole entry): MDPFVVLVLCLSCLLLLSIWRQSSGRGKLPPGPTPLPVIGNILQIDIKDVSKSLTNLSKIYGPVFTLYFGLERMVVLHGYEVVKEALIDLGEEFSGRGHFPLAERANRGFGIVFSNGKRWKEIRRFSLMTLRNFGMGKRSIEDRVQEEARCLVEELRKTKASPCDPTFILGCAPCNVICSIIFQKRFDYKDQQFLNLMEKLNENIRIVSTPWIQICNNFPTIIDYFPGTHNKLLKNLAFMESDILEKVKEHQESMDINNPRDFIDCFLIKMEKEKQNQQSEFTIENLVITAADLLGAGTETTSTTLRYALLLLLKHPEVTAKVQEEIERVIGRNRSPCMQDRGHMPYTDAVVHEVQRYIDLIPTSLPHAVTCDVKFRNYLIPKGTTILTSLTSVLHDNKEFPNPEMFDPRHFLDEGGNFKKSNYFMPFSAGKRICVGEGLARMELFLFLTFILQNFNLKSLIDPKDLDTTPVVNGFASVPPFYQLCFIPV
Sequence of CYP2D6 (P10635 whole entry): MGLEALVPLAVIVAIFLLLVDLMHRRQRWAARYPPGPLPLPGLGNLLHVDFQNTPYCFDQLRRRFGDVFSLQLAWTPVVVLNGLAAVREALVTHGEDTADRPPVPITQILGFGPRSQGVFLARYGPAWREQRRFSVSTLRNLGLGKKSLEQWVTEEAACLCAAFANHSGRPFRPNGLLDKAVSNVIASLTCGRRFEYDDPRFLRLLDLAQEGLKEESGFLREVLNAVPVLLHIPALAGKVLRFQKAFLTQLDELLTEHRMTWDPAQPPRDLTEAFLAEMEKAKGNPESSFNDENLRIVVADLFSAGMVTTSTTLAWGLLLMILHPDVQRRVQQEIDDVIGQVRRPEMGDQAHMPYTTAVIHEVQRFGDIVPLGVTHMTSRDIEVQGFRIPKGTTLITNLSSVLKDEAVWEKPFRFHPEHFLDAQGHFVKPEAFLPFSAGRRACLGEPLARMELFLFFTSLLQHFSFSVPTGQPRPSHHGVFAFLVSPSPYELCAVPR
Sequence of TrkA kinase (P04629 33-796): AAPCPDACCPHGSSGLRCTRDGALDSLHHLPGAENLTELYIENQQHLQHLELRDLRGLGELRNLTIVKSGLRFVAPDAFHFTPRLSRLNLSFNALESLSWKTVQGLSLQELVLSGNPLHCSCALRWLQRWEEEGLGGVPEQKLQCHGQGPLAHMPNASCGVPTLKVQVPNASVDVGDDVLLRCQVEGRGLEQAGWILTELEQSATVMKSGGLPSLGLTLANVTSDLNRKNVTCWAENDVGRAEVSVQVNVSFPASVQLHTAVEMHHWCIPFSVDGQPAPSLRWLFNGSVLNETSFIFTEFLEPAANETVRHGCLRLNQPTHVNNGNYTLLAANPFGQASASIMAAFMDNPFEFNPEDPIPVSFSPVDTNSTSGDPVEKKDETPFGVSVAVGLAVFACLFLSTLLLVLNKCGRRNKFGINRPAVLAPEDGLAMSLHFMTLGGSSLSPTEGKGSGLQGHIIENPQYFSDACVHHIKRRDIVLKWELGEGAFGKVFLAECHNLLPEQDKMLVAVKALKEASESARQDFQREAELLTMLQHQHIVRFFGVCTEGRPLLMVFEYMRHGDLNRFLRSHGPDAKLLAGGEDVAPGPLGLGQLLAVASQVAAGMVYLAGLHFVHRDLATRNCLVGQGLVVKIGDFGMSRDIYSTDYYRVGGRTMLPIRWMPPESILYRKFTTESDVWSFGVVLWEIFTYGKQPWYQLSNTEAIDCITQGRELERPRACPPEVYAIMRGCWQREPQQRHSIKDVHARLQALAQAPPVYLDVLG
Sequence of CYP3A4(BQ) (P08684 whole entry): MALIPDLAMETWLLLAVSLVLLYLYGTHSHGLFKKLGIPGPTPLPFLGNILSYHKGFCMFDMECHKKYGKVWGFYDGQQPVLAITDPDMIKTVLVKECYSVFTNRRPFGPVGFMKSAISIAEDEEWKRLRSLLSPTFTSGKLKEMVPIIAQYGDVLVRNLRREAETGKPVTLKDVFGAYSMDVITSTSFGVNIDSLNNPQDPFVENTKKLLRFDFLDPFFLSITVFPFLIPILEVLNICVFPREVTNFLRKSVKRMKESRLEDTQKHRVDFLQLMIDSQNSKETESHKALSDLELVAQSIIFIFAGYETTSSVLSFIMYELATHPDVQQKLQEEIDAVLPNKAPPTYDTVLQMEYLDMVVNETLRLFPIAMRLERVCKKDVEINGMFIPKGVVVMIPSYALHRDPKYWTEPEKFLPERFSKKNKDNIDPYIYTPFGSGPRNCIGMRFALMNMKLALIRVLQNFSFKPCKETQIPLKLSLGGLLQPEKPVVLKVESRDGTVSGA

SMILES	IC50 [1]	IC50 [2]	IC50 [3]	IC50 [4]	IC50 [5]
Cc1ccc(Nc2ccc(C(=O)c3c[nH]c4ncnc(NCC5CC5)c34)c(F)n2)cn1 [Compound P-4113, [4-(cyclopropylmethylamino)-7H-pyrrolo[2,3-d]pyrimidin-5-yl]-[2-fluoro-6-[(6-methyl-3-pyridyl)amino]-3-pyridyl]methanone]	< 100 nM	< 10 nM	> 10 µM	> 10 µM	> 10 µM
CNc1ncnc2[nH]cc(C(=O)c3ccc(Nc4ccc(C)nc4)nc3F)c12 [Compound P-4115, [2-fluoro-6-[(6-methyl-3-pyridyl)amino]-3-pyridyl]-[4-(methylamino)-7H-pyrrolo[2,3-d]pyrimidin-5-yl]methanone]	< 100 nM	< 10 nM	< 5 µM	< 5 µM	> 10 µM
CCc1ccc(Nc2ccc(C(=O)c3c[nH]c4ncnc(NC5CCOCC5)c34)c(F)n2)cn1 [Compound P-4116, [6-[(6-ethyl-3-pyridyl)amino]-2-fluoro-3-pyridyl]-[4-(tetrahydropyran-4-ylamino)-7H-pyrrolo[2,3-d]pyrimidin-5-yl]methanone]	< 100 nM	< 10 nM	> 10 µM	> 10 µM	> 10 µM
CCc1ccc(Nc2ccc(C(=O)c3c[nH]c4ncnc(NC(C)C)c34)c(F)n2)cn1 [Compound P-4117, [6-[(6-ethyl-3-pyridyl)amino]-2-fluoro-3-pyridyl]-[4-(isopropylamino)-7H-pyrrolo[2,3-d]pyrimidin-5-yl]methanone]	< 100 nM	< 10 nM	> 10 µM	> 10 µM	> 10 µM
CCc1ccc(Nc2ccc(C(=O)c3c[nH]c4ncnc(NCCOC)c34)c(F)n2)cn1 [Compound P-4119, [6-[(6-ethyl-3-pyridyl)amino]-2-fluoro-3-pyridyl]-[4-(2-methoxyethylamino)-7H-pyrrolo[2,3-d]pyrimidin-5-yl]methanone]	< 10 nM	< 10 nM	> 10 µM	> 10 µM	> 10 µM
CCc1ccc(Nc2ccc(C(=O)c3c[nH]c4ncnc(NCC(F)(F)F)c34)c(F)n2)cn1 [Compound P-4120, [6-[(6-ethyl-3-pyridyl)amino]-2-fluoro-3-pyridyl]-[4-(2,2,2-trifluoroethylamino)-7H-pyrrolo[2,3-d]pyrimidin-5-yl]methanone]	< 100 nM	< 100 nM	< 5 µM	< 5 µM	> 10 µM
CCCNc1ncnc2[nH]cc(C(=O)c3ccc(Nc4ccc(CC)nc4)nc3F)c12 [Compound P-4122, [6-[(6-ethyl-3-pyridyl)amino]-2-fluoro-3-pyridyl]-[4-(propylamino)-7H-pyrrolo[2,3-d]pyrimidin-5-yl]methanone]	< 10 nM	< 10 nM	> 10 µM	> 10 µM	> 10 µM
CCc1ccc(Nc2ccc(C(=O)c3c[nH]c4ncnc(NC)c34)c(F)n2)cn1 [Compound P-4124, [6-[(6-ethyl-3-pyridyl)amino]-2-fluoro-3-pyridyl]-[4-(methylamino)-7H-pyrrolo[2,3-d]pyrimidin-5-yl]methanone]	< 10 nM	< 10 nM	< 5 µM	< 5 µM	> 10 µM
COc1ccc(Nc2ccc(C(=O)c3c[nH]c4ncnc(NC5CC5)c34)c(F)n2)cn1 [Compound P-4126, [4-(cyclopropylamino)-7H-pyrrolo[2,3-d]pyrimidin-5-yl]-[2-fluoro-6-[(6-methoxy-3-pyridyl)amino]-3-pyridyl]methanone]	< 100 nM	< 10 nM	> 10 µM	> 10 µM	5 to 10 µM
Fc1cc(Cc2c[nH]c3ncnc(NC4CC4)c23)cnc1NC1CCC(F)(F)CC1 [Compound P-4127, N-cyclopropyl-5-[[6-[(4,4-difluorocyclohexyl)amino]-5-fluoro-3-pyridyl]methyl]-7H-pyrrolo[2,3-d]pyrimidin-4-amine]	< 1000 nM	< 100 nM	5 to 10 µM	> 10 µM	< 5 µM

Other lines, results leading:

IC50 [1]	IC50 [2]	IC50 [3]	IC50 [4]	IC50 [5]	SMILES
< 100 nM	< 10 nM	> 10 µM	> 10 µM	> 10 µM	CCCNc1ncnc2[nH]cc(C(=O)c3ccc(Nc4ccc(C)nc4)nc3F)c12 [Compound P-4114, [2-fluoro-6-[(6-methyl-3-pyridyl)amino]-3-pyridyl]-[4-(propylamino)-7H-pyrrolo[2,3-d]pyrimidin-5-yl]methanone]
< 100 nM	< 10 nM	> 10 µM	> 10 µM	> 10 µM	CCc1ccc(Nc2ccc(C(=O)c3c[nH]c4ncnc(NCC5CC5)c34)c(F)n2)cn1 [Compound P-4118, [4-(cyclopropylmethylamino)-7H-pyrrolo[2,3-d]pyrimidin-5-yl]-[6-[(6-ethyl-3-pyridyl)amino]-2-fluoro-3-pyridyl]methanone]
< 10 nM	< 100 nM	5 to 10 µM	> 10 µM	> 10 µM	CCc1ccc(Nc2ccc(C(=O)c3c[nH]c4ncnc(NCC(C)C)c34)c(F)n2)cn1 [Compound P-4121, [6-[(6-ethyl-3-pyridyl)amino]-2-fluoro-3-pyridyl]-[4-(isobutylamino)-7H-pyrrolo[2,3-d]pyrimidin-5-yl]methanone]
< 10 nM	< 10 nM	> 10 µM	> 10 µM	> 10 µM	CCNc1ncnc2[nH]cc(C(=O)c3ccc(Nc4ccc(CC)nc4)nc3F)c12 [Compound P-4123, [4-(ethylamino)-7H-pyrrolo[2,3-d]pyrimidin-5-yl]-[6-[(6-ethyl-3-pyridyl)amino]-2-fluoro-3-pyridyl]methanone]
< 100 nM	< 10 nM	> 10 µM	> 5 µM	> 10 µM	CCc1ccc(Nc2ccc(C(=O)c3c[nH]c4ncnc(NC5CC5)c34)c(F)n2)cn1 [Compound P-4125, [4-(cyclopropylamino)-7H-pyrrolo[2,3-d]pyrimidin-5-yl]-[6-[(6-ethyl-3-pyridyl)amino]-2-fluoro-3-pyridyl]methanone]
